According to patent US10624887B2, “Compositions of (-)-17-(cyclobutylmethyl)morphinan-3,14,-diol” (priority 2010, dated 2020):
Read-outs that look alike come from different tables or passages of the source.

Experiments:
nociception in rats = test: Eddy's hot plate test; assay type: in vivo, Wistar rats; conditions: butorphanol 1 mg/kg
Protocol: Heat is often used as a noxious stimulus in models of pain. Typically, the latency of the rat's response to the thermal stimulus is recorded as the dependent variable. To determine whether a test compound has analgesic properties, the latency responses of treated and control rats are evaluated. […] The latency of response will vary depending on the type of heat stimulus used. In the hot-plate assay, the rat is placed on a heated surface and the latency for the rat to respond to the stimulus, by licking its paw or jumping, is recorded. […]
Three groups were employed in the present study with each group comprising of 8 animals. […] Hot plate latency was assessed at 0, 30, 45 and 60 minutes after administration of the butorphanol. Area under the curve was calculated using a graph between % MPE and time. Area under the curve was employed as a quantitative measure of the analgesic effect of the treatments.
Nociceptive threshold was measured with the Eddy's hot plate test. […] Reaction time is expressed as a percentage of the maximum possible effect (MPE): […]
The anti-nociceptive effect following intragastric, intra-ileal and intra-colonic administration was assessed in terms of area under the curve calculated from a graph having time (relative to dosing time point) on the x-axis and percent maximum possible effect (% MPE) on the y-axis. The results were expressed as mean±standard error of means (S.E.M.). […]

[1] = test system: streptozotocin (STZ) induced diabetes neuropathy; test: Streptozotocin induced diabetic neuropathy, cold allodynia (acetone drop test); assay type: in vivo, Wistar rats; conditions: STZ diabetic neuropathic rats
Protocol: The aim of this study was to evaluate the effect of oral administration of butorphanol in rats with streptozotocin (STZ) induced diabetes neuropathy. A single injection of streptozotocin (STZ) (40-70 mg/kg, i.p.) was used to induce diabetes in rats. The primary measurements were made mechanical and thermal allodynia designed to detect effects of the treatment(s) on neuropathic pain.
Wistar rats weighing 250±20 g were maintained on standard laboratory diet and having free access to tap water ad lib were employed in the present study. They were housed in the animal house and were exposed to 12 hr cycle of light and dark. The experiments were conducted in a semi-sound proof laboratory. Care of the animals was in accordance with guidelines for experimentation on animals.
The STZ-induced diabetes model was adapted from Arison et al (1967).
On the experimental day 1 all rats were fasted 6-8 hrs prior to STZ treatment Immediately prior to the injection, STZ was dissolved in 50 Mm sodium citrate buffer (pH 4.5) to a final concentration of 10 mg/ml. […]
For the assessment of cold allodynia, which was stable for 3 weeks, the rats were placed on a wire mesh covered with a plastic dome and were allowed to habituate until the exploratory behavior diminished. Cold allodynia was measured as the number of foot withdrawal responses after application of stimuli to the plantar surface of the paw. […] Acetone was applied two times (once every 5 min) on the left paw, and the number of reactions (shaking, tapping, or licking) was counted during 30 sec. […] The score was expressed as accumulated numbers of reactions over the trials and determined before and 30 and 60 min after administration of the test drugs. Each individual test was expressed as a percentage of maximum possible effect (% MPE): […]
MPE (%) at 30 min time point was employed as a quantitative measure of the analgesic effect of the test drugs.
The anti-nociceptive effect was plotted assessed having time (relative to dosing time point) on the x-axis and percent maximum possible effect (% MPE) on the y-axis. […]

opioid receptors = conditions: cited from earlier work
[2] = cited from earlier work; for duration of analgesic effect (median time to requesting rescue analgesia): acute postsurgical pain

Oc1ccc2c(c1)[C@@]13CCCC[C@@]1(O)[C@@H](C2)N(CC1CCC1)CC3 [butorphanol, (−)17-(Cyclobutylmethyl)morphinan-3,14-diol]
antinociceptive effect (area under the curve of % MPE vs time), intra-colonic versus intra-gastric or intra-ileal (nociception in rats; hot plate, FIG. 14): significantly greater antinociceptive effect | hot plate latency (nociception in rats; intra-gastric, intra-ileal and intra-colonic administration, each, rats): significant increase | cold allodynia score ([1]; oral 1, 3, 10, 30 mg/kg, FIG. 20): dose dependent decrease | cold allodynia withdrawal threshold in comparison to the control readings ([1]; oral): significant increase | time of peak effect post-administration (cold allodynia) ([1]; oral): 30 min | activity at opioid receptors (opioid receptors): partial agonist | duration of analgesic effect (median time to requesting rescue analgesia) ([2]; 1 mg intranasal dose): less than 2 hours | subjects requiring rescue analgesia during the first 6 hours of observation ([2]; 1 mg intranasal dose): about 90% | duration of analgesic effect (median time to requesting rescue analgesia) ([2]; 2 mg intranasal dose): less than 2 hours | subjects requiring rescue analgesia during the first 6 hours of observation ([2]; 2 mg intranasal dose): about 80%
